Test results taken from patent publication US11707474B2, “Methods for treating acute myeloid leukemia and related conditions” (GlycoMimetics, Inc., priority 2018, dated 2023).

Tests used:
KG1 cells [1] = experiment: Systemic KG1 AML model survival; assay type: in vivo, NSG female mice; conditions: 5 mg/kg IP days 7, 10, 13, 16, 19 alone
Experimental: The potential relevance of these in vitro observations was assessed in NSG female mice with pre-existing disseminated KG1 cells and treated with a compound of Formula (I) (40 mg/kg, IP, QD for 14 days), 5-azacytidine (5 mg/kg, IP, administered on days 7, 10, 13, 16, and 19 (5 doses total)), or the combination of both compounds. Under the conditions of the assay, the median survival time of mice treated with saline alone or a compound of Formula (I) was 69.5 and 69 days, respectively (FIG. 9). Administration of a compound of Formula (I) with 5-azacytidine increased median survival time beyond that obtained with 5-azacytidine treatment alone (>104 days versus 88 days; P=0.014, FIG. 9).

KG1 = experiment: Flow cytometry, binding of E-selectin-PE conjugate to KG1 cells; assay type: cell-based, human; conditions: 100 nM
Source text: (§1) These findings indicate that hypomethylating agents, including 5-azacytidine, may increase the adhesion of leukemic blasts in the bone marrow and therefore hinder the intended anti-leukemic effect. This could explain a source of chemoresistance, and potential for relapse, in patients treated with hypomethylating agents.

KG1 cells [2] = experiment: Static adhesion of KG1 cells to E-selectin coated plates; assay type: cell-based, human; conditions: compared to control treated KG1 cells
Source text: as §1

## Nc1ncn([C@@H]2O[C@H](CO)[C@@H](O)[C@H]2O)c(=O)n1 [5-azacytidine, reference compound]
KG1 cells [1]
  median survival time: 88 days
KG1
  increase in cell binding of E-selectin-PE conjugate: 38%
KG1 cells [2]
  increase in static adhesion to E-selectin coated plates: 57%
